Measurements taken from patent publication US4963581A, “Naphthopyran derivatives and use thereof” (Takeda Chemical Industries, Ltd., priority 1988, dated 1990).

Tests used:
[1] = molecular target: T1, Human placental aromatase (Homo sapiens, UniProt P11511); assay: In vitro human placental aromatase inhibiting activity; assay type: biochemical; conditions: substrate androstenedione 4 μM, 37° C., 1 hour
T1 construct: the pellet thus obtained was used as a microsome fraction; from tissue; host or cells: human placenta, microsome fraction
T1 sequence (P11511 1-503): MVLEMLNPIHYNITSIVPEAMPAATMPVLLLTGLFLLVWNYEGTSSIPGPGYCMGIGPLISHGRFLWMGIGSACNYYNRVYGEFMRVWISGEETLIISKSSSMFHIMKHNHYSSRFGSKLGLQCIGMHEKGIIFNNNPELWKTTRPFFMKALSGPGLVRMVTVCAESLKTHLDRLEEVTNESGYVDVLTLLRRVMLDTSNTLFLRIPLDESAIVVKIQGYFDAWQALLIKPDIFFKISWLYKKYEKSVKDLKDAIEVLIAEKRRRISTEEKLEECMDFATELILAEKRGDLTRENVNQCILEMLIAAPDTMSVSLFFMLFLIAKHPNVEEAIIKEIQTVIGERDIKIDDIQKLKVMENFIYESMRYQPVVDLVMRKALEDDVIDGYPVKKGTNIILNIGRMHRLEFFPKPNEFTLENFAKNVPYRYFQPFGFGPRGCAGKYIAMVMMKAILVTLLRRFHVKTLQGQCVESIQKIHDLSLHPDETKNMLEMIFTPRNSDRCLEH
Protocol: Preparation of human placental microsome:
The method of F. A. Thompson et al. [Journal of Biological Chemistry, 249, 5364 (1974)]was partly modified. Thus, a placenta was washed with cooled 0.15 M KCl and, after removal of adhering membranes and great blood vessels, minced to sufficiently small pieces by means of scissors. To the minced tissue was added cold 0.02 M phosphate buffer (pH 7.4) containing 0.25 M sucrose in an amount of 1 ml per 1 g of tissue, the mixture was homogenized with a Polytron homogenizer (30 seconds, three times, in ice) and then centrifuged at 800×g for 10 minutes, the supernatant was subjected to centrifugation at 20,000×g for 30 minutes, followed by further centrifugation at 148,000×g for 45 minutes, and the pellet thus obtained was used as a microsome fraction. The microsome obtained was suspended in the same phosphate buffer as mentioned above in a concentration corresponding to 10 g of wet placenta per ml. The suspension was stored at -80° C. and, just prior to use, diluted 5 to 6 times.
Aromatase activity measurement and inhibitory activity:
The method of F. A. Thompson et al. (vide supra) was partly modified as follows:
A reaction solution ([…]) containing 4 μM 4-androstene-3,17-dione, 140,000 dpm, 1,2[^3 H]-androstenedione, 550 μM NADPH, 20 μl of the above microsome and 5 μl of buffer or 5 μl of an inhibitor-containing solution was incubated at 37° C. for 1 hour. In this measurement system, aromatization of androstenedione gives [^3 H]--H2 O. Therefore, this reaction mixture was extracted with 0.5 ml of chloroform for separation, the aqueous layer obtained was treated with 0.25 ml of 5% active carbon for removal of free steriods and then subjected to low speed centrifugation. A scintillator (3 ml) was added to 0.2 ml of the supernatant, and the radioactivity was measured by means of a liquid scintillation counter. The percent inhibition (%) was determined by comparing the result thus obtained with the result for a control sample as obtained without adding any inhibitor. The activity was expressed in terms of IC50 (μg/ml), namely the inhibitor concentration required for 50% inhibition of the enzyme activity at the substrate (androstenedione) concentration of 4 μM.

estrogen synthesis = assay: Estrogen synthesis inhibition in rats (PMSG-stimulated); assay type: in vivo, young SD rats; conditions: Test I, 4 days, Mean ± SD; for Plasma estradiol-17β level: PMSG control 568.6 ± 69.7
Protocol: Groups of five young SD rats ([…], 19 days old) were used. Test groups were administered subcutaneously with the test compounds suspended in 0.2% gum arabic-containing physiological saline in a dose of 25 mg/kg or 50 mg/kg at 24-hour intervals for consecutive 4 days. Non-test groups (control groups […]) were administered with 0.2 ml of 0.2% gum arabic-containing physiological saline. On the third day after initiation of the test, a single dose of pregnant mare serum gonadotropin (PMSG) was administered subcutaneously in a dose of 10 U/rat to the test groups and to the control group 2, following the administration of the test compounds. […] The plasma samples thus obtained were subjected to plasma estradiol-17B level determination by radioimmunoassay. The uterus and ovaries were excised from each rat and, after removal of superfluous connective tissues, weighed. The results thus obtained are shown in Table 2.4-Hydroxyandrostenedione (4-OHA) was used as a reference compound for the pharmacological effect evaluation.
*P < 0.05, **P < 0.02, ***P < 0.01, ****<0.001 against PMSG group

IC50 [1] [µM]	SMILES	also measured
50.4	COc1cc2cc3c(c(O)c2c(O)c1C1=C(N)C(=O)c2cc4c(c(O)c2C1=O)C(=O)OC(C)C4)C(=O)OC(C)C3 (centres unmarked) [Compound 7]	Tissue weight, Ovaries (estrogen synthesis; 25 mg/kg/day s.c.): 31.2 ± 8.5 mg; Tissue weight, Uterus (estrogen synthesis; 25 mg/kg/day s.c.): 94.1 ± 5.5 mg; Plasma estradiol-17β level (estrogen synthesis; 25 mg/kg/day s.c.): 323.4 ± 161.2 pg/mL; Tissue weight, Ovaries (estrogen synthesis; 50 mg/kg/day s.c.): 27.7 ± 2.7 mg; Tissue weight, Uterus (estrogen synthesis; 50 mg/kg/day s.c.): 110.0 ± 14.9 mg; Plasma estradiol-17β level (estrogen synthesis; 50 mg/kg/day s.c.): 206.3 ± 54.8 pg/mL
28.7	CCOC1=C(C2=C(OC)C(=O)c3cc4c(c(O)c3C2=O)C(=O)OC(C)C4)C(=O)c2c(cc3c(c2O)C(=O)OC(C)C3)C1=O (centres unmarked) [Compound 8]	
40.7	CCOC1=C(C2=C(OCC)C(=O)c3cc4c(c(O)c3C2=O)C(=O)OC(C)C4)C(=O)c2c(cc3c(c2O)C(=O)OC(C)C3)C1=O (centres unmarked) [Compound 9]	
51.2	CCOC1=C(C2=C(O)C(=O)c3cc4c(c(O)c3C2=O)C(=O)OC(C)C4)C(=O)c2c(cc3c(c2O)C(=O)OC(C)C3)C1=O (centres unmarked) [Compound 10]	
437	CNC1=C(C2=C(NC)C(=O)c3cc4c(c(O)c3C2=O)C(=O)OC(C)C4)C(=O)c2c(cc3c(c2O)C(=O)OC(C)C3)C1=O (centres unmarked) [Compound 11]	
10.5	CNC1=C(C2=C(NC)C(=O)c3cc4c(c(O)c3C2=O)C(=O)OC(C)C4)C(=O)c2c(cc3c(c2O)C(=O)OC(C)C3)C1=O (centres unmarked) [Compound 12]	
16.9	COC1=C(C2=C(OC)C(=O)c3cc4c(c(OC)c3C2=O)C(=O)OC(C)C4)C(=O)c2c(cc3c(c2OC)C(=O)OC(C)C3)C1=O (centres unmarked) [Compound 13]	
2.78	COC1=CC(=O)c2c(cc3c(c2O)C(=O)OC(C)C3)C1=O (centres unmarked) [Compound 14]	
